These results are taken from patent publication US20240002388A1, “PYRIMIDINONE COMPOUNDS AND USES THEREOF” (HUTCHISON MEDIPHARMA LIMITED, priority 2020, published 2024).

For orientation: IC50 means the midpoint of a concentration-inhibition curve.

Chain of RIPK1 recombination protein (Q13546 other isoform, or with tags, fused parts or gaps): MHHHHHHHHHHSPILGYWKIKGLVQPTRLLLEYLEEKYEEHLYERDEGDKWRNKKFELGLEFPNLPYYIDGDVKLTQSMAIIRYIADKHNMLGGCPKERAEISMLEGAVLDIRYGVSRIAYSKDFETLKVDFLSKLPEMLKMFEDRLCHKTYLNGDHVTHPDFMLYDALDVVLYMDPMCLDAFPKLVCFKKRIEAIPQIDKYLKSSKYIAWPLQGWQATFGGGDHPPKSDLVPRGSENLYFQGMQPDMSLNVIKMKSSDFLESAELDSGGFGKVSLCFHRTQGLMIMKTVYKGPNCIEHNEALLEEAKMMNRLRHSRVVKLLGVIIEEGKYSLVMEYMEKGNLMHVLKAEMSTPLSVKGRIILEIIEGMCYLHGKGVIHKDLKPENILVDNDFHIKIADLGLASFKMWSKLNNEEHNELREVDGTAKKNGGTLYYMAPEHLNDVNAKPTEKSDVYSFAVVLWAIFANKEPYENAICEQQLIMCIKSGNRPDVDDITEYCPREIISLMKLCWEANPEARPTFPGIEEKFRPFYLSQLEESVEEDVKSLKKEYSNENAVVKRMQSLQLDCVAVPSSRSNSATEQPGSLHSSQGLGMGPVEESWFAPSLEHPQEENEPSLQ

The target of this assay is RIPK1 recombination protein (Homo sapiens (Human), UniProt Q13546). As to the kind of experiment: RIPK1 kinase activity assay (ADP-Glo). Conditions: RIPK1 kinase activity, ADP-Glo, 10 μM ATP. It is filed as biochemical. How it is done:
RIPK1 recombination protein: synthesized by Shanghai Medicilon Inc. under the commission by Hutchison MediPharma Limited (50 g of cell pellet was resuspended in 250 mL of lysis buffer (50 mM Tris, pH 7.5, 250 mM NaCl, 1 mM DTT, protease inhibitor 1:50), the cells were ultrasonically lysed using a sonicator (the power set to 4) on ice for 3×30 minutes; then centrifugation was carried out at 4° C., at 15,000 g for 30 minutes to clarify the suspension, the soluble pellet was resuspended into 10 mL of glutathione agarose, and incubated at 4° C. for 2 hours; then the beads were loaded into the column and washed with lysis buffer (no protease inhibitors) to baseline, and eluted with 20 mM of reduced glutathione (50 mM Tris, pH 8). The fractions identified by SDS-PAGE as containing the protein of interest were collected (10 mL of total volume), concentrated to about 5 mL and loaded into 300 mL superdex75 column (GE Healthcare) equilibrated with buffer (50 mM Tris, pH 7.5, 150 mM NaCl, 1 mM DTT, 10% glycerol, pH 7.5). RIP1 protein was eluted as a dimer from the superdex75 column. The protein concentration was determined by the Bradford assay using BSA as the standard. The yield was 12.5 mg at 0.63 mg/mL. The protein was aliquoted and frozen at −80° C. for later use.
ADP-Glo Kinase kit can be used to measure ADP level in kinase activity assay so as to distinguish the inhibitory effects of different compounds on RIPK1 kinase activity. The ADP-Glo assay was usually divided into three steps. Firstly, the kinase converted ATP to ADP and phosphorylated the substrate at the same time; secondly, ATP digestion reagent was added to degrade all ATP in the reaction system; finally, a detection reagent was added to reduce ADP to ATP, and energy from ATP was transferred to […] which thus emitting a chemical luminescence that can be detected. Assay procedure can refer to manufacture's technical manual.
(2) Reagent Preparation: • 1.33× kinase buffer: 5× kinase buffer stock (250 mM of NaCl, 150 mM of MgCl2, 2.5 mg/ml BSA (bovine serum albumin), 0.1% CHAPS (3-[(3-cholamidopropyl)-dimethyl-ammonio]-1-propane sulfonate), and 5 mM of dithiothreitol) was diluted with water to 1.33× kinase buffer; • RIPK1 enzyme solution: the kinase was dissolved in 1.33× kinase buffer to make 40 nM as the final working concentration; • ATP solution: 10 mM ATP stock solution in water was dissolved in 1.33× kinase buffer to make 10 μM as the final working concentration; • 4× compound preparation: the compound was diluted in a 3-fold gradient, and finally 4% DMSO aqueous solution containing different concentrations of the compound was obtained. The final concentrations of the test compound were 10, 3.33, 1.11, 0.37, 0.12, 0.04, 0.014, and 0.005 μM.
The assay set up two control groups, one was 100% inhibition group (no enzyme treatment), another was 0% inhibition group (no inhibitor treatment), each control group contained 8 replicate wells. 2.5 μl of serially diluted compound was added to each well of a 384-well plate, with double replicate wells, and 4% DMSO solution was added to control wells. Then 5 μl of RIPK1 enzyme solution was added to each well except 100% inhibition control, 5 ul of buffer was added to 100% inhibition control, after that, 2.5 μl of ATP solution was added to all wells, the plate was vibrated at 1000 rpm for 30 seconds to perform transient centrifuge; finally the 384-well assay plate was put in the shaking incubator, and incubated at room temperature for 3 hours. After the enzymatic reaction was completed, 5 μl of ATP depletion reagent was added to each well, the mixture was centrifuged transiently, then the 384-well assay plate was put in the shaking incubator, and incubated at room temperature for 1 hour. 5 μl of ADP detection reagent was added to each well, and the mixture was centrifuged transiently, and incubated at room temperature for 0.5 hour. […]
(ADP-Glo turns the ADP formed in a reaction into a luminescent signal.)
On to `CC(C)n1ncc2cnc(C(=O)NC3(c4ccc(-c5cnc(N)n(C)c5=O)cc4)CC3)nc21` [Compound 30], for which the IC50 came out at 0.035 µM.
Consider `CC(C)n1ncc2cnc(C(=O)NC3(c4ccc(-c5cncn(CC6CC6)c5=O)c(F)c4F)CC3)nc21` [Compound 95], for which the half-maximal inhibitory concentration (IC50) amounted to 0.028 µM.
Next, `CC(C)n1ncc2cnc(C(=O)NC3(c4ccc(-c5cncn(C)c5=O)cc4F)CC3)nc21` [Compound 26]: 0.022 µM.
On to `CC(C)n1ncc2cnc(C(=O)NC3(c4ccc(-c5cncn(C6CC6)c5=O)cc4)CC3)nc21` [Compound 12], for which the IC50 was 0.009 µM.
With `CC(C)n1ncc2cnc(C(=O)NC3(c4ccc(-c5cncn(C6CCOC6)c5=O)cc4)CC3)nc21` (stereo in doubt) [Compound 81, (S)-1-i-propyl-N-(1-(4-(6-oxo-1-(tetrahydrofuran-3-yl)-1,6-dihydropyrimidin-5-yl)phenyl)cyclopropyl)-1H-pyrazolo[3,4-d]pyrimidine-6-carboxamide], the 50% inhibitory concentration (IC50) turned out to be 0.039 µM.
For the compound `CC(C)n1ncc2cnc(C(=O)NC3(c4ccc(-c5cncn(C6CCC6)c5=O)cc4)CC3)nc21` [Compound 42], the concentration for half-maximal inhibition (IC50) came to 0.056 µM.
For the compound `O=C(NC1(c2ccc(-c3cncn(CC4CC4)c3=O)cc2)CC1)c1ncc2cnn(CC3CC3)c2n1` [Compound 64], the IC50 came out at 0.017 µM.
The value for `CC(C)n1cncc(-c2ccc(C3(NC(=O)c4ncc5cnn([C@@H](C)C6CC6)c5n4)CC3)cc2)c1=O` [Compound 90, (S)-1-(1-cyclopropylethyl)-N-(1-(4-(1-i-propyl-6-oxo-1,6-dihydropyrimidin-5-yl)phenyl)cyclopropyl)-1H-pyrazolo[3,4-d]pyrimidine-6-carboxamide] was 0.054 µM; that for `CC(C#N)n1cncc(-c2ccc(C3(NC(=O)c4ncc5cnn(C(C)C)c5n4)CC3)cc2)c1=O` (stereo in doubt) [Compound 83, (S)—N-(1-(4-(1-(1-cyanoethyl)-6-oxo-1,6-dihydropyrimidin-5-yl)phenyl)cyclopropyl)-1-i-propyl-1H-pyrazolo[3,4-d]pyrimidine-6-carboxamide] was 0.047 µM.
On to `CC(C)n1cncc(-c2ccc(C3(NC(=O)c4nc5n(n4)[C@H](c4ccccc4)CC5)CC3)cc2)c1=O` [Compound 16], for which the IC50 was 0.025 µM.
For `CC(C)n1ncc2cnc(C(=O)NC3(c4ccc(-c5cncn([C@H](C)C6CC6)c5=O)cc4)CC3)nc21` [Compound 84, (R)—N-(1-(4-(1-(1-cyclopropylethyl)-6-oxo-1,6-dihydropyrimidin-5-yl)phenyl)cyclopropyl)-1-i-propyl-1H-pyrazolo[3,4-d]pyrimidine-6-carboxamide], the IC50 stood at 0.045 µM.
Consider `Cn1cncc(-c2ccc(C3(NC(=O)c4ncc5cnn(-c6ccccc6)c5n4)CC3)cc2)c1=O` [Compound 4], for which the IC50 stood at 0.026 µM.
Next, `CC(C)n1ncc2cnc(C(=O)NC3(c4ccc(-c5cncn([C@H]6C[C@H](F)C6)c5=O)cc4)CC3)nc21` [Compound 87, N-(1-(4-(1-(trans-3-fluorocyclobutyl)-6-oxo-1,6-dihydropyrimidin-5-yl)phenyl)cyclopropyl)-1-i-propyl-1H-pyrazolo[3,4-d]pyrimidine-6-carboxamide]: 0.041 µM; `CC[C@@H](C)n1cncc(-c2ccc(C3(NC(=O)c4ncc5cnn(C(C)C)c5n4)CC3)cc2)c1=O` [Compound 44]: 0.037 µM.
Regarding `CC(C)n1ncc2cnc(C(=O)NC3(c4ccc(-c5cncn([C@H]6C[C@@H]6F)c5=O)cc4)CC3)nc21` [Compound 67], the IC50 amounted to 0.049 µM.
For the compound `CC(C)n1ncc2cnc(C(=O)NC3(c4ccc(-c5cncn(C6CCOC6)c5=O)cc4)CC3)nc21` (stereo in doubt) [Compound 80, (R)-1-i-propyl-N-(1-(4-(6-oxo-1-(tetrahydrofuran-3-yl)-1,6-dihydropyrimidin-5-yl)phenyl)cyclopropyl)-1H-pyrazolo[3,4-d]pyrimidine-6-carboxamide], the 50% inhibitory concentration (IC50) stood at 0.042 µM.
Next, `CC(C)n1cncc(-c2ccc(C3(NC(=O)c4ncc5cnn(-c6ccccc6)c5n4)CC3)cc2)c1=O` [Compound 19]: 0.071 µM; `CC(C)n1ncc2cnc(C(=O)NC3(c4ccc(-c5cncn(CC6CC6)c5=O)c(F)c4)CC3)nc21` [Compound 75]: 0.051 µM; `CC(C)n1ncc2cnc(C(=O)NC3(c4cc(F)c(-c5cncn(CC6CC6)c5=O)cc4F)CC3)nc21` [Compound 94]: 0.027 µM.
Take `CC(C)n1ncc2cnc(C(=O)NC3(c4ccc(-c5cncn(C6CCOCC6)c5=O)cc4)CC3)nc21` [Compound 77]: the IC50 is 0.042 µM.
In the case of `Cn1cncc(-c2ccc(C3(NC(=O)c4ncn(Cc5ccccc5)n4)CC3)cc2)c1=O` [Compound 8], the concentration for half-maximal inhibition (IC50) was 0.022 µM.
For the compound `CC(C)n1cncc(-c2ccc(C3(NC(=O)c4ncc5cnn(C(C)C)c5n4)CC3)c(F)c2F)c1=O` [Compound 93], the IC50 was found to be 0.035 µM.
Consider `CC(C)n1cncc(-c2ccc(C3(NC(=O)c4ncc5cnn(C(C)C)c5n4)CC3)c(F)c2Cl)c1=O` [Compound 91], for which the IC50 turned out to be 0.072 µM.
With `CC(C)n1ncc2cnc(C(=O)NC3(c4ccc(-c5cncn([C@@H](C)C(F)(F)F)c5=O)cc4)CC3)nc21` [Compound 40], the half-maximal inhibitory concentration (IC50) was 0.052 µM.
The value for `CC(C)n1ncc2cnc(C(=O)NC3(c4ccc(-c5cncn([C@H]6C[C@@H](F)C6)c5=O)cc4)CC3)nc21` [Compound 88, N-(1-(4-(1-(cis-3-fluorocyclobutyl)-6-oxo-1,6-dihydropyrimidin-5-yl)phenyl)cyclopropyl)-1-i-propyl-1H-pyrazolo[3,4-d]pyrimidine-6-carboxamide] was 0.041 µM; that for `CC(C)n1ncc2cnc(C(=O)NC3(c4ccc(-c5cncn([C@H](C)C(F)(F)F)c5=O)cc4F)CC3)nc21` (stereo in doubt) [Compound 46] was 0.035 µM.
On to `C[C@H](c1ccccc1)n1cnc(C(=O)NC2(c3ccc(-c4cncn(C)c4=O)cc3)CC2)n1` [Compound 55, (R)—N-(1-(4-(1-methyl-6-oxo-1,6-dihydropyrimidin-5-yl)phenyl)cyclopropyl)-1-(1-phenylethyl)-1H-1,2,4-triazole-3-carboxamide], for which the IC50 turned out to be 0.023 µM.
For the compound `CC(C)n1cncc(-c2ccc(C3(NC(=O)c4ncc5cnn(C(C)C)c5n4)CC3)c(F)c2)c1=O` [Compound 34], the IC50 was 0.065 µM.
Next, `CC(C)n1cncc(-c2ccc(C3(NC(=O)c4ncc5cnn(CC6CC6)c5n4)CC3)c(F)c2)c1=O` [Compound 72]: 0.065 µM.
For `C[C@H](n1cncc(-c2ccc(C3(NC(=O)c4ncc5cnn(CC6CC6)c5n4)CC3)c(F)c2)c1=O)C(F)(F)F` [Compound 71], the concentration for half-maximal inhibition (IC50) came out at 0.11 µM.
In the case of `CC(C)n1cncc(-c2ccc(C3(NC(=O)c4ncn(Cc5ccccc5)n4)CC3)cc2)c1=O` [Compound 17], the IC50 worked out at 0.015 µM.
Turning to `CC(C)n1ncc2cnc(C(=O)NC3(c4ccc(-c5cncn(CC6(C)CC6)c5=O)cc4)CC3)nc21` [Compound 86], the IC50 was found to be 0.014 µM.
Consider `CC(C)n1ncc2cnc(C(=O)NC3(c4ccc(-c5cncn([C@@H](C)C6CC6)c5=O)cc4)CC3)nc21` [Compound 85, (S)—N-(1-(4-(1-(1-cyclopropylethyl)-6-oxo-1,6-dihydropyrimidin-5-yl)phenyl)cyclopropyl)-1-i-propyl-1H-pyrazolo[3,4-d]pyrimidine-6-carboxamide], for which the IC50 was found to be 0.03 µM.
As to `CC(C)n1ncc2cnc(C(=O)NC3(c4ccc(-c5cncn(C)c5=O)cc4)CC3)nc21` [Compound 1, 1-isopropyl-N-(1-(4-(1-methyl-6-oxo-1,6-dihydropyrimidin-5-yl)phenyl)cyclopropyl)-1H-pyrazolo[3,4-d]pyrimidine-6-carboxamide], the IC50 was determined as 0.028 µM.
